Results as given in US20190084909A1, “F[…] COMPOUNDS, COMPOSITIONS AND USES THEREOF” (YISSUM RESEARCH DEVELOPMENT COMPANY OF THE HEBREW …, priority 2015, published 2019).

Columns and labels:
Male Swiss mice [1] = assay: Elevated plus maze (EPM), Example 9; assay type: in vivo; settings: 10 mg/kg ip
Experimental: (§1) Male Swiss mice (25-30 g) originated from the Central Animal Farm of the School of Medicine of Ribeirão Preto (FMRP-USP) were maintained in groups of five animals per box (41×33×17 cm) in a temperature controlled room (24±2° C.) with a 12×12 h light-dark cycle. They received water and food ad libitum throughout the study period.
(§2) Cannabidiol (CBD; THC Pharm, 15-60 mg/kg) and HU-485 (1-10 mg/kg) were administered intraperitoneally (ip). All drugs were dissolved in 2% Tween 80 in sterile saline.
The wood-made EPM was located in a sound attenuated and temperature controlled room (23° C.), with one incandescent light (40 W) placed 1.3 m away from the maze. The apparatus consisted of two opposing open arms (30×5 cm) perpendicular to two enclosed arms (30×5×40 cm), with a central platform common to all arms (5×5 cm). The apparatus was elevated 50 cm above the ground and an acrylic edge (1 cm) surrounded the open arms to prevent animal falls. […] The test lasted for 5 min and the animal behavior was analyzed with the help of the Anymaze Software (version 4.5, Stoelting), which indicated the position of the animal in the maze and calculated the percentage of entries (Peo) and time spent in the open arms (Pto) and the number of entries in the enclosed arms (EA). […]
(§3) Results were analyzed by one-way ANOVA followed by Duncan test. […]

Male Swiss mice [2] = assay: Forced swimming test (FST), Example 9; assay type: in vivo; settings: doses of 3 and 10 mg/kg ip; p<0.05
Experimental: as §1, §2
Animals were submitted to 6 min of forced swimming in glass cylinders (height 25 cm, diameter 17 cm) containing 10 cm of water at 23-25° C. Immobility time (characterized by slow movements necessary to avoid drowning) was measured during the last 4-min period. The water was changed after each trial to prevent the influence of alarm substances (Zanelati et al., 2010). Antidepressants typically decrease immobility time in this test.
Results were analyzed by one-way ANOVA followed by Duncan test. Significant level was set at p<0.05.
Animals received an injection of vehicle (V, n=7 animals/group) or HU-485 and were tested in the EPM 20 min later. Immediately after the test they were submitted to the FST for 6 min. Data represents the means±SEM of immobility time in the FST and the % of open arm entries and time spent in these arms of the EPM. * indicates difference from V group.

Male Swiss mice [3] = assay: Pre-pulse inhibition (PPI), impairment induced by amphetamine; assay type: in vivo
Experimental: as §1, §2
The PPI test was conducted simultaneously in two identical startle response systems (Med Associates, USA). A continuous acoustic signal provided a background white noise level of 65 dB. The pulse consists of a 105 dB white noise burst with a rise/decay of 5 ms and duration of 20 ms. The pre-pulse comprised pure 7000 Hz tones, 10 ms duration, with intensities set at 80, 85, and 90 dB. The setups were daily calibrated to ensure equal sensitivity throughout the experiments. Calibration was performed by adjusting the gain on the load cell amplifier to 150 arbitrary units (AU) at a standard weight appropriated for a 40 g mice. The limits of the load cell were −2047 to +2047 AU. Thirty min after the injection of the tested compounds mice received i.p. injections of amphetamine 10 mg/kg or vehicle. […] The first 10 pulse-alone trials allow for the within-session habituation to the startle stimulus and are not considered for PPI statistical analysis. The test consisted of 64 pseudo-random trials divided into eight different groups presented with an inter-stimulus interval of 30 s, and consisting of pulse alone (105 dB), pre-pulse alone (80, 85, or 90 dB), pre-pulse+pulse with 100 ms interval between pre-pulse and pulse, and no stimulus presented. […] Mean acoustic startle response to pulse-alone (P) trials and each pre-pulse+pulse (PP+P) trial was recorded for each subject. PPI was calculated by expressing the pre-pulse+pulse startle amplitude as a percentage of decrease from pulse-alone startle amplitude, according to the following formula: % PPI=100−[100×(PP+P/P)]. This transformation reduces statistical variability attributable to differences between animals and it is a direct PPI measure. Antipsychotic drugs typically attenuate PPI impairment induced by amphetamine.
as §3
Animals received a first injection of vehicle (V) or CBD, followed 30 min later, by vehicle (n=9) or amphetamine 10 mg/kg (V+amphetamine group=9 animals). PPI was evaluated at three-stimuli intensity (90, 85 and 80 dB). […]
Animals received a first injection of vehicle (V) or HU-485, followed 30 min later, by vehicle (n=7) or amphetamine 10 mg/kg (V+amphetamine group=7 animals). PPI was evaluated at three-stimuli intensity (90, 85 and 80 dB). […]

human CB2 = molecular target: T1, human CB2 (Homo sapiens, UniProt P34972); assay: CB2 receptor binding assay, [3H]CP-55,940, membranes of transfected CHO cells
T1 construct: expressed in transfected cells; host or cells: CHO cells, stably transfected; crude membranes
T1 sequence (P34972 whole entry): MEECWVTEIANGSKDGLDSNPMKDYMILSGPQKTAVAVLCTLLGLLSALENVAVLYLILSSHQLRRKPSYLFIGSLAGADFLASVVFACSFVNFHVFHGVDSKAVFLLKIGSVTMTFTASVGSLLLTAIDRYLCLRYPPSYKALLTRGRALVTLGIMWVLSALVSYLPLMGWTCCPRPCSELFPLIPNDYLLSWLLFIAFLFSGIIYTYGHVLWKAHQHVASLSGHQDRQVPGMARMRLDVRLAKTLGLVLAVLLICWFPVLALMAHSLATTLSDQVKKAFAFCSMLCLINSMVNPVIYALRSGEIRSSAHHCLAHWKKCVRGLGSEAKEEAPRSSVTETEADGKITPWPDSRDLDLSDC
Experimental: For CB1 receptor binding assay synaptosomal membranes from rat brains were used. Sabra male rats weighing ˜200 g were decapitated and their brains, without the brain stem, were quickly removed. Synaptosomal membranes were prepared from the brains by centrifugation and sucrose density gradient ultracentrifugation after their homogenization. The CB2 receptor binding assays were performed using crude membranes obtained from Chinese hamster ovary (CHO) cells stably transfected with the human CB2 cDNA.
Bound and free radioligand were separated by centrifugation (13,000 rpm for 6 min). Non-specific binding, which was determined with 50 nM unlabelled CP-55,940, was subtracted. Binding experiments were repeated 2-3 times and each point performed in triplicate. The Ki values were determined using the GraphPad Prism program (La Jolla, Calif., USA) and the Cheng-Prusoff equation.

Row | SMILES | number of enclosed arm entries (Male Swiss mice [1]) | percentage of time spent in the open arms of the EPM (Male Swiss mice [1]; Duncan p<0.05) | immobility time in the FST (Male Swiss mice [2]) | effect on PPI by itself (Male Swiss mice [3]; 30 mg/kg, without amphetamine) | effect on PPI impairment by amphetamine (Male Swiss mice [3]; HU-485 3, 10 and 30 mg/kg, any dose, amphetamine 10 mg/kg) | Ki (human CB2) [µM]
1 | CCCCCc1cc(O)c(C2C=C(CF)CC[C@H]2C(C)C)c(O)c1 (stereo partly drawn) [HU-485] | without changing | increased | decreased | did not impair PPI | not attenuated | 
2 | CCCCCc1cc(O)c(C2C=C(C)C(F)C[C@H]2C(C)C)c(O)c1 (stereo partly drawn) [HU-487] |  |  |  |  |  | 4 to 5
